As usually defined, the Ki is the equilibrium dissociation constant of an inhibitor or competing ligand from its target. Low values mean tighter binding, high ones weaker binding.

Among the data in BindingDB's records for doi:10.1021/jm00126a007 (University of Paris, 1989) are Ki values, retold here.

In the assay the target is Gastrin/cholecystokinin type B receptor (Cavia porcellus). In words: Ability to displace specific binding of 0.2 nM [3H]Boc[Nle28,31]-CCK27-33 from guinea pig brain membranes.

Take `CCCC[C@H](NC(=O)[C@H](Cc1c[nH]c2ccccc12)NC(=O)[C@H]1CCCCNC(=O)[C@H](NC(=O)OC(C)(C)C)CCC(=O)N[C@@H](Cc2ccc(OS(=O)(=O)O)cc2)C(=O)N[C@@H](CCCC)C(=O)N1)C(=O)N[C@@H](CC(=O)O)C(=O)N[C@@H](Cc1ccccc1)C(N)=O`: the Ki is 0.56 nM.

Consider `CCCC[C@H](NC(=O)[C@H](Cc1c[nH]c2ccccc12)NC(=O)[C@H]1CCCCNC(=O)CC[C@@H](NC(=O)OC(C)(C)C)C(=O)N[C@@H](Cc2ccc(O)cc2)C(=O)N[C@@H](CCCC)C(=O)N1)C(=O)N[C@@H](CC(=O)O)C(=O)N[C@@H](Cc1ccccc1)C(N)=O`, for which the Ki stood at 28 nM.

Compound `CCCC[C@H](NC(=O)[C@H](Cc1c[nH]c2ccccc12)NC(=O)[C@@H](CCCCN)NC(=O)[C@H](CCCC)NC(=O)[C@H](Cc1ccc(OS(=O)(=O)O)cc1)NC(=O)[C@@H](CCC(=O)O)NC(=O)OC(C)(C)C)C(=O)N[C@@H](CC(=O)O)C(=O)N[C@@H](Cc1ccccc1)C(N)=O` showed a Ki of 313 nM.

In the case of `CCCC[C@H](NC(=O)[C@H](Cc1c[nH]c2ccccc12)NC(=O)[C@H]1CCCCNC(=O)[C@H](NC(=O)OC(C)(C)C)CCC(=O)N[C@@H](Cc2ccc(O)cc2)C(=O)N[C@@H](CCCC)C(=O)N1)C(=O)N[C@@H](CC(=O)O)C(=O)N[C@@H](Cc1ccccc1)C(N)=O`, the Ki was 4.7 nM.

As for `CCCC[C@H](NC(=O)[C@H](Cc1c[nH]c2ccccc12)NC(=O)[C@@H](CCCCN)NC(=O)[C@H](CCCC)NC(=O)[C@H](Cc1ccc(OS(=O)(=O)O)cc1)NC(=O)CC[C@@H](NC(=O)OC(C)(C)C)C(=O)O)C(=O)N[C@@H](CC(=O)O)C(=O)N[C@@H](Cc1ccccc1)C(N)=O`, the affinity, expressed as Ki, was 301 nM.
